Assay results: patent US9597314B2, “Beta-lactamylalkanoic acids for treating premenstrual disorders” (AZEVAN PHARMACEUTICALS, INC., priority 2005, dated 2017)

Legend:
vasopressin V1a receptor = target: T1, vasopressin V1a receptor (Homo sapiens, UniProt P37288); test: Inhibition of phosphatidylinositol turnover; assay type: cell-based; conditions: hV1a cells; for agonist or antagonist character: vasopressin-mediated turnover of phosphatidylinositol
T1 construct: host or cells: CHO cells (hV1a cell line), whole adherent cells
T1 sequence (P37288 whole entry): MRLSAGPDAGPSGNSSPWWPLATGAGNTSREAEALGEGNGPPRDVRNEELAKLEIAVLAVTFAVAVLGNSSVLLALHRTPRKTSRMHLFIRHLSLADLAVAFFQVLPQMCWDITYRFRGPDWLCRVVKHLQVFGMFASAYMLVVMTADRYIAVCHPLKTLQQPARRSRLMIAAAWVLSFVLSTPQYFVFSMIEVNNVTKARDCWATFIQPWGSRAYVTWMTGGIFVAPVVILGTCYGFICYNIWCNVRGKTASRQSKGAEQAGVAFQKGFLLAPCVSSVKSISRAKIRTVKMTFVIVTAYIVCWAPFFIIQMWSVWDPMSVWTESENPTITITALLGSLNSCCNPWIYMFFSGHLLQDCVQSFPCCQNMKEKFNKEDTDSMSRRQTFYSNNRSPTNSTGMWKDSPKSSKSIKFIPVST
Description: Inhibition of phosphatidylinositol turnover. The physiological effects of vasopressin are mediated through specific G-protein coupled receptors. The vasopressin V1a receptor is coupled to the Gq/G11 family of G proteins and mediates phosphatidylinositol turnover. The agonist or antagonist character of the compounds of the invention may be determined by their ability to inhibit vasopressin-mediated turnover of phosphatidylinositol by the procedure described in the following paragraphs.
Cell culture and labeling of cells. Three days prior to the assay, near-confluent cultures of hV1a cells were dissociated and seeded in 6-well tissue culture plates, about 100 wells being seeded from each 75 cm^2 flask (equivalent to 12:1 split ratio).
Incubations. All assays were in triplicate except for basal and 10 nM AVP (both n=6). AVP ((arginine vasopressin), Peninsula Labs, Belmont, Calif., USA (#8103)) was dissolved in 0.1N acetic acid. Test agents were dissolved in DMSO and diluted in DMSO to 200 times the final test concentration. […] The order of incubations was randomized. Incubations were initiated by removing the prelabeling medium, washing the monolayer once with 1 mL of 0.9% NaCl, and transferring the contents of the assay tubes to corresponding wells. The plates were incubated for 1 hour at 37° C. Incubations were terminated by removing the incubation medium and adding 500 μL of ice cold 5% (w/v) trichloroacetic acid and allowing the wells to stand for 15 min.
Measurement of [^3H]inositol phosphates. BioRad Poly-Prep Econo-Columns were packed with 0.3 mL of AG 1 X-8 100-200 formate form resin. Resin was mixed 1:1 with water and 0.6 mL added to each column. Columns were then washed with 10 mL water. Scintillation vials (20 mL) were placed under each column. For each well, the contents were transferred to a minicolumn, after which the well was washed with 0.5 mL distilled water, which was also added to the minicolumn. The columns were then washed twice with 5 mL of 5 mM myo-inositol to elute free inositol. Aliquots (1 mL) were transferred to 20 mL scintillation vials and 10 mL of Beckman Ready Protein Plus added. After the myo-inositol wash was complete, empty scintillation vials were placed under the columns, and [^3H]inositol phosphates were eluted with three additions of 1 mL 0.5 M ammonium formate containing 0.1 N formic acid. Elution conditions were optimized to recover inositol mono-, bis-, and trisphosphates, without eluting the more metabolically inert tetrakis-, pentakis-, and hexakis-phosphates. To each sample was added 10 mL of a high salt capacity scintillation fluid such as Tru-Count High Salt Capacity or Packard Hionic-Fluor. Inositol lipids were measured by adding 1 mL of 2% sodium dodecyl sulfate (SDS) to each well, allowing the wells to stand for at least 30 min., and transferring the solution to 20 mL scintillation vials, to which 10 mL Beckman Ready Protein Plus scintillation fluid was then added. Samples were counted in a Beckman LS 3801 liquid scintillation counter for 10 min. Total inositol incorporation for each well was calculated as the sum of free inositol, inositol phosphates, and inositol lipids.
Data analysis: concentration-inhibition experiments. Concentration-response curves for AVP and concentration-inhibition curves for test agents versus 10 nM AVP were analyzed by nonlinear least-squares curve-fitting to a 4-parameter logistic function. Parameters for basal and maximal inositol phosphates, EC50 or IC50, and Hill coefficient were varied to achieve the best fit. The curve-fitting was weighted under the assumption that the standard deviation was proportional to dpm of radioactivity. Full concentration-response curves for AVP were run in each experiment, and IC50 values were converted to Ki values by application of the Cheng-Prusoff equation, based on the EC50 for AVP in the same experiment. Inositol phosphates were expressed as dpm per 10^6 dpm of total inositol incorporation.

V1a [1] = target: T2, V1a (Homo sapiens, UniProt P37288); test: Human vasopression V1a receptor binding assay; parameters: host or cells: CHO cells (hV1a cell line), whole adherent cells; conditions: for Ki / IC50: hV1a cell line (CHO); for Ki: Table 18; for IC50: 1 nM 3H-AVP, Table 17, read-out: V1a Binding Affinity (IC50 (nM))
T2 sequence (P37288 whole entry): as above
Outline: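 Whole CHO cells stably expressing human V1a receptor competed 1 nM 3H-AVP against 10-fold serial compound dilutions (DMSO) in pH 7.0 Hepes/BSA/DMEM buffer, 45 min at 37° C.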

V1a [2] = target: T2, V1a; parameters: host or cells: human subjects (in vivo); conditions: oral, subjects 18-35 years; cited from earlier work
[3] = system: panel of 63 other receptors; test: Comparative binding to other receptors showing selectivity (NOVASCREEN); conditions: 100 nM
Description: Comparative binding to other receptors showing selectivity.

[4] = system: AVP-induced rise in blood pressure; test: Blood pressure pharmacology rats; assay type: in vivo
Description: Blood pressure pharmacology rats. […] Prior to menses, blood vessels in the uterine wall become engorged with blood. Vasopressin, acting through V1a receptors, causes constriction of both uterine and vascular smooth muscle contributing to the discomfort and pain of primary dysmenorrhea. Vasopressin is one of the endogenous factors that maintains vascular tone. Blocking the V1a receptors localized to smooth muscle may ameliorate the symptoms of primary dysmenorrhea. Elevated concentrations of vasopressin, acting through V1a receptors causes constriction of both uterine and vascular smooth muscle contributing to the discomfort and pain of primary dysmenorrhea. There are no animal models for evaluating receptor antagonists on dysmenorrhea. […]
Male rats were divided into five groups, and each group was tested with placebo, or one of four doses of one or more of the compounds described herein, such as with Example 225 at 0.16, 0.4, 1.0, and 2.5 mg/kg. Rats were treated orally with the compound and effects on blood pressure were measured 90-150 min later as follows. Under isoflurane anesthesia blood pressure was recorded through a cannula in the femoral artery. To increase systemic blood pressure AVP was administered (25 ng/kg) through a cannula in the femoral vein; the change in mean blood pressure was recorded two minutes following injection of AVP.

**Q.** With `O=C(NCc1cccc(C(F)(F)F)c1)C(CCC(=O)N1CCN(CCc2ccccc2)CC1)N1C(=O)C(N2C(=O)OCC2c2ccccc2)C1C=Cc1ccccc1` (single isomer, unassigned) [Example 35] as the compound, how does the “agonist or antagonist character” value (vasopressin V1a receptor) read?
**A.** The value was “vasopressin V1a antagonists”.

**Q.** What about the Ki (V1a [1]) of the same compound?
**A.** Its Ki is 1.17 nM.

**Q.** For `O=C(NCc1cccc(C(F)(F)F)c1)C(CCC(=O)N1CCN(C2CCCCC2)CC1)N1C(=O)C(N2C(=O)OCC2c2ccccc2)C1C=Cc1ccccc1` (single isomer, unassigned) [Example 110], which “agonist or antagonist character” value (vasopressin V1a receptor) is on record?
**A.** The value was “vasopressin V1a antagonists”.

**Q.** What about the Ki (V1a [1]) of the same compound?
**A.** Its Ki is 0.27 nM.

**Q.** Which results are given for `O=C(NCc1cccc(C(F)(F)F)c1)[C@H](CC(=O)N1CCC(N2CCCCC2)CC1)N1C(=O)[C@@H](N2C(=O)OC[C@@H]2c2ccccc2)[C@H]1/C=C/c1ccccc1` [Example 44]?
**A.** agonist or antagonist character (vasopressin V1a receptor): vasopressin V1a antagonists; Ki (V1a [1]): 1.89 nM

**Q.** What does the source list for `O=C(NCc1cccc(C(F)(F)F)c1)[C@@H](CC(=O)N1CCC(N2CCCCC2)CC1)N1C(=O)[C@@H](N2C(=O)OC[C@@H]2c2ccccc2)[C@H]1/C=C/c1ccccc1` [Example 133]?
**A.** agonist or antagonist character (vasopressin V1a receptor): vasopressin V1a antagonists; Ki (V1a [1]): 1.49 nM

**Q.** With `O=C(NCc1cccc(C(F)(F)F)c1)[C@H](CCC(=O)N1CCC(N2CCCCC2)CC1)N1C(=O)[C@@H](N2C(=O)OC[C@@H]2c2ccccc2)[C@H]1/C=C/c1ccccc1` [Example 88] as the compound, how does the “agonist or antagonist character” value (vasopressin V1a receptor) read?
**A.** Its value is “vasopressin V1a antagonists”.

**Q.** What about the IC50 (V1a [1]) of the same compound?
**A.** The IC50 was 2.4 nM.

**Q.** And the Ki (V1a [1])?
**A.** Its Ki is 1.45 nM.

**Q.** Which “reduction in pain across three menstrual cycles” value (V1a [2]) does the source give for `COc1ccc(S(=O)(=O)N2c3ccc(Cl)cc3[C@](O)(c3ccccc3Cl)[C@@H]2C(=O)N2CCC[C@H]2C(N)=O)cc1OC` [SR49059] here?
**A.** The value was “significant reduction in pain”.

**Q.** For `CN(Cc1cccc(C(F)(F)F)c1)C(=O)[C@@H](CC(=O)N1CCC(N2CCCCC2)CC1)N1C(=O)[C@@H](N2C(=O)OC[C@@H]2c2ccccc2)[C@H]1/C=C/c1ccccc1` [Example 225, 2(R)-[[4-(Piperidinyl)piperidinyl]carbonylmethyl]-2-[3(S)-(4(S)-phenyloxazolidin-2-on-3-yl)-4(R)-(2-styryl)azetidin-2-on-1-yl]acetic acid N-methyl-N-(3-trifluoromethylbenzyl)amide], which Ki (vasopressin V1a receptor; from IC50 by Cheng-Prusoff equation, read-out: Ki, suppression of the action of AVP) is on record?
**A.** The Ki was 0.05 nM.

**Q.** And the “suppression of the action of AVP” value (vasopressin V1a receptor; inositol phosphates)?
**A.** The value was “dose-dependent suppression of the action of AVP”.

**Q.** What about the IC50 (vasopressin V1a receptor; versus 10 nM AVP, inositol phosphates, read-out: IC50, suppression of the action of AVP) of the same compound?
**A.** Its IC50 is 2.68 nM.

**Q.** And the “selective binding against panel of 63 other receptors” value [3]?
**A.** Its value is “bound only to the V1a vasopressin receptor”.

**Q.** And the “inhibition of the AVP-induced rise in blood pressure” value ([4]; male rats, oral 0.16, 0.4, 1.0, 2.5 mg/kg, 90-150 min before AVP 25 ng/kg)?
**A.** The value was “dose-dependent inhibition of the AVP-induced rise in blood pressure”.

**Q.** What about the “reduction in blood pressure as compared to vehicle and the two lower doses” value ([4]; rats, oral 1 and 2.5 mg/kg) of the same compound?
**A.** The value was “significant (p<0.01) reduction in blood pressure”.

**Q.** What about the IC50 (V1a [1]) of the same compound?
**A.** The IC50 was 1.08 nM.

**Q.** What about the “binding curve against [3H]-AVP” value (V1a [1]; hV1a cell line, 10 fold dilutions of test compound) of the same compound?
**A.** The value was “dose-dependent competitive binding curve”.

**Q.** Which IC50 (V1a [1]) does the source give for `O=C(NC1(c2ccccc2)CC1)[C@H](CCC(=O)N1CCN(C2CCCCC2)CC1)N1C(=O)[C@@H](N2C(=O)OC[C@@H]2c2ccccc2)[C@H]1/C=C/c1ccccc1` [Example 207] here?
**A.** Its IC50 is 4.48 nM.

**Q.** What about the Ki (V1a [1]) of the same compound?
**A.** Its Ki is 2.74 nM.

**Q.** Which Ki (V1a [1]) does the source give for `O=C(NC1(c2cccc(F)c2)CCCC1)[C@H](CCC(=O)N1CCN(C2CCCCC2)CC1)N1C(=O)[C@@H](N2C(=O)OC[C@@H]2c2ccccc2)[C@H]1/C=C/c1ccccc1` [Example 221AM] here?
**A.** Its Ki is 2.7 nM.

**Q.** Which IC50 (V1a [1]) does the source give for `O=C(NCc1ccc(F)c(C(F)(F)F)c1)[C@H](CCC(=O)N1CCN(C2CCCCC2)CC1)N1C(=O)[C@@H](N2C(=O)OC[C@@H]2c2ccccc2)[C@H]1/C=C/c1ccccc1` [Example 178] here?
**A.** The IC50 was under 50 nM.

**Q.** With `O=C(CC[C@@H](C(=O)NCc1cccc(C(F)(F)F)c1)N1C(=O)C(N2C(=O)OC[C@@H]2c2ccccc2)C1/C(F)=C/c1ccccc1)NC1CN2CCC1CC2` (stereo partly shown) [Example 230F] as the compound, how does the IC50 (V1a [1]) read?
**A.** The IC50 was about 100 nM.
